According to patent EP0565593B1, “REDUCING PESTICIDAL INTERACTIONS IN CROPS” (priority 1990, dated 1992):

Experiments:
Velvetleaf (VELE) = assay: Greenhouse test Procedure VII (same examples); format: in vivo, Abutilon theophrasti
Source text: This procedure describes interaction among herbicide, biocide and antidote when the biocide and the antidote is applied to a soil furrow containing crop seed before emergence of the crop and the herbicide is applied after emergence of the crop and weeds. The soil and planting depth was described in Procedure IV. The containers for comparison, the biocide and antidote applications to soil furrows were described in Procedure VI. In this procedure, the seed beds of the first, second, third and fourth containers are covered by soil layers not treated with herbicide. The containers were then placed on a bench in a greenhouse and subirrigated as required for the duration of the test. The herbicide, dispersed or dissolved in water containing 0.25% v/v nonionic surfactant (X-77) was applied by a track sprayer (187 L/ha) to the emerged plants of the second, third and fourth containers about five days after planting. All treatments were run in duplicate. Plant response was observed according to Procedure IV. Variations in this procedure will be noted in the examples.
In this example, tests were conducted according to Procedure VII for the POE application of the herbicides following in-furrow application of COUNTER® 15G insecticide (BIOCIDE No. 1) and the antidote on the pre-planted test seeds. In this test, the herbicides were Nos. 1 (MON-12000), 10 (ALLY®) and #4 (HARMONY®) and the Antidote Nos. 1, 7, 12 and 33.
These in-furrow treatments comprised a 50-50 mix of blended granules of COUNTER with and without 5G granular antidotes at 7.4 + 7.4 mg/cm or 1.1 + 0.37 mg active ingredient (a.i.)/cm. The in-furrow initiation of the test was followed five (5) days later with POE application of the herbicides; observations were made eight (8) days later. Table 38 […]

wheat (WHEA) = assay: Multi-crop greenhouse test, soil-applied (Examples 65, 66; Tables 64, 65); format: in vivo
Method: (§1) Tests according to this invention in various crops indicate widespread application of the invention. In Examples 62-66 below are described tests with a variety of herbicides contacted with COUNTER® 15G in the presence and absence of MON-7400 (Antidote No. 12); MON-13900 (No. 1); MON-4660 (No. 16) and flurazole (No. 16). Those tests were conducted according to Procedures IV or V described above and illustrated further in other foregoing examples. Plants used in all tests were, for crops (as abbreviated in parentheses); cotton (COTT); soybean (SOBE); CORN, grain sorghum (GRSO); wheat (WHEA) and RICE, and the weeds giant foxtail (GIFT) and velvetleaf (VELE). The data in the tables below represent averages of two replications.
(§2) In this test the crops and weeds were planted 1.3 cm deep in 13.7 cm X 27.7 cm pans containing Dupo silt loam soil. The test safeners were applied in acetone solution and COUNTER 15G as dry granules to soil cover layers and incorporated by shaking in a bag. Treated cover layers were placed on seeded pans which were transferred to greenhouse benches and subirrigated. Herbicide was applied POE six (6) days after PPI initiation and observations of plant injury made ten (10) days later; results are shown in Table 61. The herbicide used in this example was BEACON (No. 8).
(§3) In another test in the several crops and weeds used in this test series, the herbicidal component was MON-12000 (No. 1); the other components were the same. the procedure used in this test was the same as that described in Example 62, modified to use a light overhead irrigation (about 0.32 cm/day) during days 4-7 of the test. Table 64 […]

RICE = assay: as above; format: in vivo
Method: as §1, §2, §3

soybean (SOBE) = assay: as above; format: in vivo
Method: as §1, §2, §3

Corn = assay: as above; format: in vivo
Method: as §1, §2, §3

grain sorghum (GRSO) = assay: as above; format: in vivo
Method: as §1, §2, §3

Giant foxtail (GIFT) = assay: as above; format: in vivo
Method: as §1, §2, §3

[1] = Table 64, Herb. No. 1 0.018 Kg/Ha + Biocide No. 1 8.96 Kg/Ha + Antidote 4.48 Kg/Ha
[2] = Table 64, Herb. No. 1 0.07 Kg/Ha + Biocide No. 1 8.96 Kg/Ha + Antidote 4.48 Kg/Ha
[3] = Table 64, Herb. No. 1 0.28 Kg/Ha + Biocide No. 1 8.96 Kg/Ha + Antidote 4.48 Kg/Ha
[4] = Table 65, Herb. No. 1 0.018 Kg/Ha + Biocide No. 1 8.96 Kg/Ha + Antidote 4.48 Kg/Ha
[5] = Table 65, Herb. No. 1 0.07 Kg/Ha + Biocide No. 1 8.96 Kg/Ha + Antidote 4.48 Kg/Ha
[6] = Table 65, Herb. No. 1 0.28 Kg/Ha + Biocide No. 1 8.96 Kg/Ha + Antidote 4.48 Kg/Ha

CC1(C)OC(c2ccco2)CN1C(=O)C(Cl)Cl (stereo not drawn) [compound 1]
% Inhibition VELE (Velvetleaf (VELE); Antidote + Biocide No. 1 in furrow, Herbicide No. 1 0.14 Kg/Ha POE, 8 days after POE): 95%
% Inhibition VELE (Velvetleaf (VELE); Antidote + Biocide No. 1 in furrow, Herbicide No. 4 0.17 Kg/Ha POE, 8 days after POE): 90%
% Inhibition VELE (Velvetleaf (VELE); Antidote + Biocide No. 1 in furrow, Herbicide No. 5 0.07 Kg/Ha POE, 8 days after POE): 95%
% Inhibition VELE (Velvetleaf (VELE); Antidote + Biocide No. 1 in furrow, Herbicide No. 6 0.01 Kg/Ha POE): 60%
% Inhibition VELE (Velvetleaf (VELE); Antidote + Biocide No. 1 in furrow, Herbicide No. 7 0.56 Kg/Ha POE, 8 days after POE): 75%
% Inhibition VELE (Velvetleaf (VELE); Antidote + Biocide No. 1 in furrow, Herbicide No. 9 0.009 Kg/Ha POE): 90%
% Inhibition VELE (Velvetleaf (VELE); Antidote + Biocide No. 1 in furrow, Herbicide No. 10 0.002 Kg/Ha POE, 8 days after POE): 90%
% Inhibition VELE (Velvetleaf (VELE); Antidote + Biocide No. 1 in furrow, Herbicide No. 15 0.0044 Kg/Ha POE, 8 days after POE): 75%
% Inhibition VELE (Velvetleaf (VELE); Antidote + Biocide No. 1 in furrow, Herbicide No. 16 0.01 Kg/Ha POE): 35%
% Inhibition VELE (Velvetleaf (VELE); Antidote + Biocide No. 1 in furrow, Herbicide No. 18 0.0044 Kg/Ha POE): 65%
% Inhibition VELE (Velvetleaf (VELE); Antidote + Biocide No. 1 in furrow, Herbicide No. 19 0.28 Kg/Ha POE): 65%
% Inhibition VELE (Velvetleaf (VELE); Antidote + Biocide No. 1 in furrow, Herbicide No. 21 0.14 Kg/Ha POE): 85%
% Inhibition VELE (Velvetleaf (VELE); Antidote + Biocide No. 1 in furrow, Herbicide No. 23 0.0006 Kg/Ha POE): 60%
% Inhibition VELE (Velvetleaf (VELE); Herbicide No. 1 0.14 Kg/Ha POE + Biocide No. 1 in furrow, no antidote, 8 days after POE): 90%
% Inhibition VELE (Velvetleaf (VELE); Herbicide No. 1 0.14 Kg/Ha POE alone, 8 days after POE): 85%
% Inhibition WHEA (wheat (WHEA); [1]): 0%
% Inhibition WHEA (wheat (WHEA); [2]): 0%
% Inhibition WHEA (wheat (WHEA); [3]): 0%
% Inhibition WHEA (wheat (WHEA); [4]): 10%
% Inhibition WHEA (wheat (WHEA); [5]): 25%
% Inhibition WHEA (wheat (WHEA); [6]): 70%
% Inhibition RICE (RICE; [1]): 0%
% Inhibition RICE (RICE; [2]): 10%
% Inhibition RICE (RICE; [3]): 25%
% Inhibition RICE (RICE; [4]): 10%
% Inhibition RICE (RICE; [5]): 25%
% Inhibition RICE (RICE; [6]): 95%
% Inhibition SOBE (soybean (SOBE); [1]): 35%
% Inhibition SOBE (soybean (SOBE); [2]): 75%
% Inhibition SOBE (soybean (SOBE); [3]): 70%
% Inhibition SOBE (soybean (SOBE); [4]): 0%
% Inhibition SOBE (soybean (SOBE); [5]): 0%
% Inhibition SOBE (soybean (SOBE); [6]): 5%
% Inhibition Corn (Corn; [1]): 5%
% Inhibition Corn (Corn; [2]): 15%
% Inhibition Corn (Corn; [3]): 10%
% Inhibition Corn (Corn; [4]): 0%
% Inhibition Corn (Corn; [5]): 5%
% Inhibition Corn (Corn; [6]): 20%
% Inhibition GRSO (grain sorghum (GRSO); [1]): 0%
% Inhibition GRSO (grain sorghum (GRSO); [2]): 0%
% Inhibition GRSO (grain sorghum (GRSO); [3]): 0%
% Inhibition GRSO (grain sorghum (GRSO); [4]): 0%
% Inhibition GRSO (grain sorghum (GRSO); [5]): 25%
% Inhibition GRSO (grain sorghum (GRSO); [6]): 65%
% Inhibition GIFT (Giant foxtail (GIFT); [1]): 50%
% Inhibition GIFT (Giant foxtail (GIFT); [2]): 70%
% Inhibition GIFT (Giant foxtail (GIFT); [3]): 85%
% Inhibition GIFT (Giant foxtail (GIFT); [4]): 40%
% Inhibition GIFT (Giant foxtail (GIFT); [5]): 80%
% Inhibition GIFT (Giant foxtail (GIFT); [6]): 95%
